This is an account of results in patent publication EP4631940A1, “COMPOUND TARGETING PAN-KRAS PROTEIN DEGRADATION AGENT AND USE THEREOF” (Betta Pharmaceuticals Co., Ltd., priority 2022, dated 2024).

Where two headings read alike, the source gives them in different places.

Series [1] is described as follows: in vitro. The conditions noted are these: human, microsomes.
Series [2] in a line: in vitro. The conditions noted are these: rat, microsomes.
Series [3] deals with T1, KRAS G12D (Homo sapiens, UniProt P01116, G12D).
The test system of the next series is AGS. Description: Cell proliferation experiment (CellTiter-Glo). It counts as cell-based. The conditions noted are these: Homo sapiens, AGS, 96 h, read-out: IC50(nM) AGS.
Series [4] deals with T1, KRAS G12D. Description: cell-based. Conditions: AGS.
A short description of series [5]: PK study in Balbc mice (whole blood). It counts as in vivo. Conditions: Female Balbc mice, IV 1 mg/kg. Here is the method:
Example 7 PK Study of Compound 2 in Balbc Mice
Compound 2 was mixed with the vehicle (10% DMSO / 5% Solutol HS 15 / 85% saline), vortexed, and sonicated to prepare a clear solution at 0.2 mg/mL. Female Balbc mice aged 6 to 7 weeks (non-fasted) were intravenously administered Compound 2. Whole blood was collected at specified time points. Drug concentration was analyzed by LC-MS/MS, and pharmacokinetic parameters were calculated using Phoenix WinNonlin software (Pharsight Corporation, USA). Table 10 Mouse PK Data for Intravenous Compound 2 Monotherapy

A further series relates to H358. Description: Cell proliferation experiment (CellTiter-Glo). In kind it is cell-based. The conditions noted are these: Homo sapiens, NCI-H358; H358, KRAS mutation type G12C; 96 h incubation. On the technique in general: ATP-based viability assays read luminescence as a measure of living cells.
A short description of series [6]: in vitro. The conditions noted are these: mouse, microsomes.
A further series deals with SW620. Description: Cell proliferation experiment (CellTiter-Glo). It counts as cell-based. Conditions: Homo sapiens, SW-620, 96 h, read-out: IC50(nM) SW620.
Test in series [7]: not given
This is another data set of the same source.

A short description of series [8]: in vitro. Conditions: dog, microsomes.
Series [9] can be described thus: PK study in ICR mice (plasma). Conditions: Female ICR mice, IV 1 mg/kg. It counts as in vivo. Here is the method:
Example 9 PK Study of Compound in ICR Mice (plasma)
The compound was mixed with the vehicle (10% DMSO / 5% Solutol HS 15 / 85% saline), vortexed, and sonicated to prepare a clear solution at 0.2 mg/mL. Female ICR mice aged 6 to 7 weeks (non-fasted) were intravenously administered the compound. Plasma was collected at specified time points. Drug concentration was analyzed by LC-MS/MS, and pharmacokinetic parameters were calculated using Phoenix WinNonlin software (Pharsight Corporation, USA). Table 12 Mouse PK Data for Intravenous Compound Monotherapy

T1 sequence (P01116 1-188 isoform P01116-2 G12D): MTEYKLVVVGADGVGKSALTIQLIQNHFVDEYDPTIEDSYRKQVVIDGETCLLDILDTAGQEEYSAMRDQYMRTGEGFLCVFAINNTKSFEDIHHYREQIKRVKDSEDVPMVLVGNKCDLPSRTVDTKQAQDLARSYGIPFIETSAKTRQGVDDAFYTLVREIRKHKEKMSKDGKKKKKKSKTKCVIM

With `CCc1c(F)ccc2cc(O)cc(-c3ncc4c(N5CCCC(C)(O)C5)nc(OC[C@]56CCCN5[C@@H](COC(=O)N5CCC7(CC5)CC(C(=O)N[C@H](C(=O)N5C[C@H](O)C[C@H]5C(=O)N[C@@H](C)c5ccc(-c8scnc8C)cc5)C(C)(C)C)C7)CC6)nc4c3F)c12` (stereo partly drawn) [Compound 2, ((3R,7aR)-7a-(((7-(8-ethyl-7-fluoro-3-hydroxynaphthalen-1-yl)-8-fluoro-4-(3-hydroxy-3-methylpiperidin-1-yl)pyrido[4,3-d]pyrimidin-2-yl)oxy)methyl)hexahydro-1H-pyrrolizin-3-yl)methyl 2-(((S)-1-((2S,4R)-4-hydroxy-2-(((S)-1-(4-(4-methylthiazol-5-yl)phenyl)ethyl)carbamoyl)pyrrolidin-1-yl)-3,3-dimethyl-1-oxobutan-2-yl)carbamoyl)-7-azaspiro[3.5]nonane-7-carboxylate], the “The in vitro intrinsic clearance in liver microsomes (CLint, in vitro, µL/min/mg protein) Dog” value turned out to be 0.0 µL/min/mg protein. Also, in “in vitro [1]”, the microsomal CLint (usually the capacity of the preparation to metabolise the compound, expressed as a volume cleared per time) was found to be 31 µL/min/mg. Moreover, the intrinsic clearance (microsomal CLint) in “in vitro [2]” came out at 11.6 µL/min/mg. Further, the DC50 on KRAS G12D [3] (AGS cell line, In Cell Western Blotting, KRAS^G12D vs GAPDH) turned out to be 316 nM. Moreover, the 50% inhibitory concentration (IC50) (as a rule, the concentration that gives 50% inhibition) with AGS turned out to be 44 nM. The Dmax at KRAS G12D [4] came out at 95%. Also, in [5], the “Cl_obs” value turned out to be 3.77 mL/min/kg and the “Vss_obs” value is recorded as 0.586 L/kg. Besides, in series [5] (mouse), the AUC(0-t) – broadly, exposure summed from dosing to a finite time, without extrapolation to infinity – was determined as 4380 ng·h/mL; the C0 is 8790 ng/mL; the half-life (in general, the time in which the quantity being followed falls by half) is 6.49 h. The same compound gave a half-maximal inhibitory concentration (IC50) in the series on H358 of 143 nM. The microsomal CLint in the series “in vitro [6]” was 16.6 µL/min/mg. Also, the half-maximal inhibitory concentration (IC50) with SW620 worked out at 501 nM.

`CCc1c(F)ccc2cc(O)cc(-c3ncc4c(N5CCC[C@@](C)(O)C5)nc(OCC5(CN6CCN(c7ccc(-c8cn([C@H](C(=O)N9C[C@H](O)C[C@H]9C(=O)N[C@@H](C)c9ccc(-c%10scnc%10C)cc9)C(C)C)nn8)cn7)CC6)CC5)nc4c3F)c12` [Compound 142] had a microsomal CLint in “in vitro [1]” of 11.1 µL/min/mg. Also, on KRAS G12D [3], the DC50 came to 6.3 nM. The IC50 in the series with AGS was determined as 10 nM. The Dmax at KRAS G12D [4] was 95%. In addition, the “The in vitro intrinsic clearance in liver microsomes (CLint, in vitro, µL/min/mg protein) Rat” value in [7] is 0.0 µL/min/mg protein. The compound also returned an intrinsic metabolic clearance (microsomal CLint) in “in vitro [8]” of 14.2 µL/min/mg. The compound also displayed a microsomal CLint in the series “in vitro [6]” of 17.7 µL/min/mg. Further, in series [9], the “Cl_obs” value came to 7.32 mL/min/kg and the “Vss_obs” value amounted to 0.854 L/kg. Moreover, in series [9] (mouse), the AUC(0-t) came to 2300 ng·h/mL, the C0 was found to be 9460 ng/mL and the half-life was 4.1 h.
